Measurements as given in patent publication US20220162191A1, “SMALL MOLECULE MODULATORS OF IL-17” (LEO PHARMA A/S, priority 2019, published 2022).

target: T1, human IL-17AA (Homo sapiens, UniProt Q16552); assay: IL-8 release assay in human epithelial keratinocytes adult (HEKa); format: cell-based; settings: 3 ng/ml human IL-17AA + 10 ng/ml human TNFalpha, 68-72 h, IL-8 by HTRF, read-out: Rel EC50 L-8 release assay
T1 construct: host or cells: HEK (human embryonic kidney) cells
T1 sequence (Q16552 24-155) 1: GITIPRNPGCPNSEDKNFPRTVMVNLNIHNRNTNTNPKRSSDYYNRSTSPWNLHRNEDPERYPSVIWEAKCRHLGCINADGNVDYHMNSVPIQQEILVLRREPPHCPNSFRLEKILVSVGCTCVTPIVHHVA
T1 sequence (Q16552 24-155) 2: T1 sequence (Q16552 24-155) 1
Procedure, shortened: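 Adult human keratinocytes in Epilife with HKGS minus hydrocortisone, treated with compound then stimulated with final 3 ng/ml HEK-derived human IL-17AA plus 10 ng/ml TNF-alpha for 68–72 h at 37 °C; TNF-alpha alone defines 100% inhibition. Secreted IL-8 by HTRF; relative IC50 and Emax from four-parameter fits.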

Structure (SMILES)	EC50 [nM]
Cn1cnnc1-c1ccc(NC(=O)C(Cc2cc(-c3cccc(C(C)(C)CO)c3)ccc2Cl)NC(=O)c2ccnn2C)cc1 (stereo not drawn) [Example 164, N-[1-[[2-chloro-5-[3-(2-hydroxy-1,1-dimethyl-ethyl)phenyl]phenyl]methyl]-2-[4-(4-methyl-1,2,4-triazol-3-yl)anilino]-2-oxo-ethyl]-2-methyl-pyrazole-3-carboxamide]	100 to 1000
Cn1cncc1-c1ccc(NC(=O)C(Cc2cc(-c3ccnc(N4CCOCC4)c3)ccc2Cl)NC(=O)c2ccnn2C)cc1 (stereo not drawn) [Example 165, N-[1-[[2-chloro-5-(2-morpholino-4-pyridyl)phenyl]methyl]-2-[4-(3-methylimidazol-4-yl)anilino]-2-oxo-ethyl]-2-methyl-pyrazole-3-carboxamide]	100 to 1000
Cn1cncc1-c1ccc(NC(=O)C(Cc2cc(-c3ccnc(OCC4CC4)c3)ccc2Cl)NC(=O)c2ccnn2C)cc1 (stereo not drawn) [Example 166, N-[1-[[2-chloro-5-[2-(cyclopropylmethoxy)-4-pyridyl]phenyl]methyl]-2-[4-(3-methylimidazol-4-yl)anilino]-2-oxo-ethyl]-2-methyl-pyrazole-3-carboxamide]	100 to 1000
CN(C)C(=O)c1cc(-c2ccc(Cl)c(CC(NC(=O)c3ccnn3C)C(=O)Nc3ccc(-c4nncn4C)cc3)c2)ccc1O (stereo not drawn) [Example 167, N-[1-[[2-chloro-5-[3-(dimethylcarbamoyl)-4-hydroxy-phenyl]phenyl]methyl]-2-[4-(4-methyl-1,2,4-triazol-3-yl)anilino]-2-oxo-ethyl]-2-methyl-pyrazole-3-carboxamide]	> 1000
Cn1cnnc1-c1ccc(NC(=O)C(Cc2cc(-c3ccc(O)c(CN4CCC4)c3)ccc2Cl)NC(=O)c2ccnn2C)cc1 (stereo not drawn) [Example 168, N-[1-[[5-[3-(azetidin-1-ylmethyl)-4-hydroxy-phenyl]-2-chloro-phenyl]methyl]-2-[4-(4-methyl-1,2,4-triazol-3-yl)anilino]-2-oxo-ethyl]-2-methyl-pyrazole-3-carboxamide]	100 to 1000
Cn1cnnc1-c1ccc(NC(=O)C(Cc2cc(-c3cccc(CC4CC4)c3)ccc2Cl)NC(=O)c2ccnn2C)cc1 (stereo not drawn) [Example 169, N-[1-[[2-chloro-5-[3-(cyclopropylmethyl)phenyl]phenyl]methyl]-2-[4-(4-methyl-1,2,4-triazol-3-yl)anilino]-2-oxo-ethyl]-2-methyl-pyrazole-3-carboxamide]	100 to 1000
Cn1cnnc1-c1ccc(NC(=O)C(Cc2cc(-c3cccc(C4CC4)c3)ccc2Cl)NC(=O)c2ccnn2C)cc1 (stereo not drawn) [Example 170, N-[1-[[2-chloro-5-(3-cyclopropylphenyl)phenyl]methyl]-2-[4-(4-methyl-1,2,4-triazol-3-yl)anilino]-2-oxo-ethyl]-2-methyl-pyrazole-3-carboxamide]	100 to 1000
CCCCn1cc(-c2ccc(Cl)c(C[C@H](NC(=O)c3ccnn3C)C(=O)Nc3ccc(-c4cncn4C)cc3)c2)cn1 [Example 171]	100 to 1000
Cn1cnnc1-c1ccc(NC(=O)C(Cc2cc(-c3ccc(O)c(C(=O)N4CCC4)c3)ccc2Cl)NC(=O)c2ccnn2C)cc1 (stereo not drawn) [Example 172, N-[1-[[5-[3-(azetidine-1-carbonyl)-4-hydroxy-phenyl]-2-chloro-phenyl]methyl]-2-[4-(4-methyl-1,2,4-triazol-3-yl)anilino]-2-oxo-ethyl]-2-methyl-pyrazole-3-carboxamide]	> 1000
Cn1cnnc1-c1ccc(NC(=O)C(Cc2cc(-c3ccc(O)c(C(=O)N4CCNCC4)c3)ccc2Cl)NC(=O)c2ccnn2C)cc1 (stereo not drawn) [Example 173, N-[1-[[2-chloro-5-[4-hydroxy-3-(piperazine-1-carbonyl)phenyl]phenyl]methyl]-2-[4-(4-methyl-1,2,4-triazol-3-yl)anilino]-2-oxo-ethyl]-2-methyl-pyrazole-3-carboxamide]	> 1000
Cc1n[nH]cc1-c1ccc(NC(=O)[C@H](Cc2cc(-c3ccc(=O)n(C(C)C)c3)ccc2Cl)NC(=O)c2ccnn2C)cc1O [Example 174, N-[(1S)-1-[[2-chloro-5-(1-isopropyl-6-oxo-3-pyridyl)phenyl]methyl]-2-[3-hydroxy-4-(3-methyl-1H-pyrazol-4-yl)anilino]-2-oxo-ethyl]-2-methyl-pyrazole-3-carboxamide]	< 100
CC(C)n1cc(-c2ccc(Cl)c(C[C@H](NC(=O)c3ccnn3C)C(=O)Nc3ccc(-c4cn[nH]c4)c(O)c3)c2)ccc1=O [Example 175, N-[(1S)-1-[[2-chloro-5-(1-isopropyl-6-oxo-3-pyridyl)phenyl]methyl]-2-[3-hydroxy-4-(1H-pyrazol-4-yl)anilino]-2-oxo-ethyl]-2-methyl-pyrazole-3-carboxamide]	< 100
Cn1cncc1-c1ccc(NC(=O)C(Cc2cc(-c3cccc(C(C)(C)N)c3)ccc2Cl)NC(=O)c2ccnn2C)cc1 (stereo not drawn) [Example 176, N-[1-[[5-[3-(1-amino-1-methyl-ethyl)phenyl]-2-chloro-phenyl]methyl]-2-[4-(3-methylimidazol-4-yl)anilino]-2-oxo-ethyl]-2-methyl-pyrazole-3-carboxamide]	< 100
Cc1n[nH]c(C)c1-c1ccc(NC(=O)[C@H](Cc2cc(-c3ccc(=O)n(C(C)C)c3)ccc2Cl)NC(=O)c2ccnn2C)cc1O [Example 177, N-[(1S)-1-[[2-chloro-5-(1-isopropyl-6-oxo-3-pyridyl)phenyl]methyl]-2-[4-(3,5-dimethyl-1H-pyrazol-4-yl)-3-hydroxy-anilino]-2-oxo-ethyl]-2-methyl-pyrazole-3-carboxamide]	< 100
Cn1cnnc1-c1ccc(NC(=O)C(Cc2cc(-c3ccc(O)c(C4=NCCCO4)c3)ccc2Cl)NC(=O)c2ccnn2C)cc1 (stereo not drawn) [Example 178, N-[1-[[2-chloro-5-[3-(5,6-dihydro-4H-1,3-oxazin-2-yl)-4-hydroxy-phenyl]phenyl]methyl]-2-[4-(4-methyl-1,2,4-triazol-3-yl)anilino]-2-oxo-ethyl]-2-methyl-pyrazole-3-carboxamide]	100 to 1000
Cn1cncc1-c1ccc(NC(=O)C(Cc2cc(-c3cccc(C(C)(C)O)c3)ccc2Cl)NC(=O)c2ccnn2C)cc1 (stereo not drawn) [Example 179, N-[1-[[2-chloro-5-[3-(1-hydroxy-1-methyl-ethyl)phenyl]phenyl]methyl]-2-[4-(3-methylimidazol-4-yl)anilino]-2-oxo-ethyl]-2-methyl-pyrazole-3-carboxamide]	< 100
Cc1ncn(C)c1-c1ccc(NC(=O)[C@H](Cc2cc(-c3cccc(C(C)(C)O)c3)ccc2Cl)NC(=O)c2ccnn2C)cc1 [Example 181, N-[(1S)-[[2-chloro-5-[3-(1-hydroxy-1-methyl-ethyl)phenyl]phenyl]methyl]-2-[4-(3,5-dimethylimidazol-4-yl)anilino]-2-oxo-ethyl]-2-methyl-pyrazole-3-carboxamide]	< 100
Cc1ncn(C)c1-c1ccc(NC(=O)[C@H](Cc2cc(-c3cnn(C(C)(C)C)c3)ccc2Cl)NC(=O)c2ccnn2C)cc1 [Example 182, N-[(1S)-1-[[5-(1-tert-butylpyrazol-4-yl)-2-chloro-phenyl]methyl]-2-[4-(3,5-dimethylimidazol-4-yl)anilino]-2-oxo-ethyl]-2-methyl-pyrazole-3-carboxamide]	< 100
Cn1cncc1-c1ccc(NC(=O)C(Cc2cc(-c3ccnc(N4CC5(COC5)C4)c3)ccc2Cl)NC(=O)c2ccnn2C)cc1 (stereo not drawn) [Example 183, N-[1-[[2-chloro-5-[2-(6-oxa-2-azaspiro[3.3]heptan-2-yl)-4-pyridyl]phenyl]methyl]-2-[4-(3-methylimidazol-4-yl)anilino]-2-oxo-ethyl]-2-methyl-pyrazole-3-carboxamide]	100 to 1000
CN(C)[C@H]1CCN(c2cc(-c3ccc(Cl)c(CC(NC(=O)c4ccnn4C)C(=O)Nc4ccc(-c5cncn5C)cc4)c3)ccn2)C1 (stereo partly drawn) [Example 184, N-[1-[[2-chloro-5-[2-[(3S)-3-(dimethylamino)pyrrolidin-1-yl]-4-pyridyl]phenyl]methyl]-2-[4-(3-methylimidazol-4-yl)anilino]-2-oxo-ethyl]-2-methyl-pyrazole-3-carboxamide]	100 to 1000
Cn1cncc1-c1ccc(NC(=O)C(Cc2cc(-c3ccnc(N4CC[C@H](CO)C4)c3)ccc2Cl)NC(=O)c2ccnn2C)cc1 (stereo partly drawn) [Example 185, N-[1-[[2-chloro-5-[2-[(3S)-3-(hydroxymethyl)pyrrolidin-1-yl]-4-pyridyl]phenyl]methyl]-2-[4-(3-methylimidazol-4-yl)anilino]-2-oxo-ethyl]-2-methyl-pyrazole-3-carboxamide]	100 to 1000
Cn1cncc1-c1ccc(NC(=O)C(Cc2cc(-c3ccnc(N4CC[C@@H](CO)C4)c3)ccc2Cl)NC(=O)c2ccnn2C)cc1 (stereo partly drawn) [Example 186, N-[1-[[2-chloro-5-[2-[(3R)-3-(hydroxymethyl)pyrrolidin-1-yl]-4-pyridyl]phenyl]methyl]-2-[4-(3-methylimidazol-4-yl)anilino]-2-oxo-ethyl]-2-methyl-pyrazole-3-carboxamide]	100 to 1000
Cn1cncc1-c1ccc(NC(=O)C(Cc2cc(-c3ccnc(N4CCC4CO)c3)ccc2Cl)NC(=O)c2ccnn2C)cc1 (stereo not drawn) [Example 187, N-[1-[[2-chloro-5-[2-[2-(hydroxymethyl)azetidin-1-yl]-4-pyridyl]phenyl]methyl]-2-[4-(3-methylimidazol-4-yl)anilino]-2-oxo-ethyl]-2-methyl-pyrazole-3-carboxamide]	100 to 1000
Cn1cncc1-c1ccc(NC(=O)C(Cc2cc(-c3ccnc(N4CC[C@H]4CO)c3)ccc2Cl)NC(=O)c2ccnn2C)cc1 (stereo partly drawn) [Example 188, N-[1-[[2-chloro-5-[2-[(2S)-2-(hydroxymethyl)azetidin-1-yl]-4-pyridyl]phenyl]methyl]-2-[4-(3-methylimidazol-4-yl)anilino]-2-oxo-ethyl]-2-methyl-pyrazole-3-carboxamide]	100 to 1000
